Data taken from ChEMBL document CHEMBL1909046, “DrugMatrix in vitro pharmacology data”.

What was measured:
[1] = molecular target: T1, Alpha-1A adrenergic receptor (Rattus norvegicus, UniProt P43140); assay: DRUGMATRIX: Alpha-1A adrenergic receptor radioligand binding (ligand: prazosin); type: cell membranes, Wistar, Submaxillary gland, Membrane; details: Not Active = under 50% inhibition at 10 µM
T1 sequence (P43140 whole entry): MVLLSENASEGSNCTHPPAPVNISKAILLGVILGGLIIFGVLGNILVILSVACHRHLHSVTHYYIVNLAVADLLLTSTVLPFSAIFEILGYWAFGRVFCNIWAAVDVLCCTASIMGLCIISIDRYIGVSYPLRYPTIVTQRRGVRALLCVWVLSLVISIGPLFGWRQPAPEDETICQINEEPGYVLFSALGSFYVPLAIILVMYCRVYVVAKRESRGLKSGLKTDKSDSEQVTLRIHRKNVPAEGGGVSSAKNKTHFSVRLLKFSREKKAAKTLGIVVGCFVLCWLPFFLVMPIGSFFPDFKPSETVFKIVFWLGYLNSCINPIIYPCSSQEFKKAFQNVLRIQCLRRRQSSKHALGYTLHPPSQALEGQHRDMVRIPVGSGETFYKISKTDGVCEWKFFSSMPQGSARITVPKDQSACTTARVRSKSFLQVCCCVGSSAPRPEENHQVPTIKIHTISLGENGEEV

[2] = molecular target: T2, Receptor-type tyrosine-protein phosphatase C (Homo sapiens, UniProt P08575); set-up: species or system Escherichia coli;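 note: inhibition of CD45 enzyme activity measured using DiFMUP as substrate; in other assays of this panel Not Active means under 50% inhibition at 10 µM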
T2 sequence (P08575 whole entry): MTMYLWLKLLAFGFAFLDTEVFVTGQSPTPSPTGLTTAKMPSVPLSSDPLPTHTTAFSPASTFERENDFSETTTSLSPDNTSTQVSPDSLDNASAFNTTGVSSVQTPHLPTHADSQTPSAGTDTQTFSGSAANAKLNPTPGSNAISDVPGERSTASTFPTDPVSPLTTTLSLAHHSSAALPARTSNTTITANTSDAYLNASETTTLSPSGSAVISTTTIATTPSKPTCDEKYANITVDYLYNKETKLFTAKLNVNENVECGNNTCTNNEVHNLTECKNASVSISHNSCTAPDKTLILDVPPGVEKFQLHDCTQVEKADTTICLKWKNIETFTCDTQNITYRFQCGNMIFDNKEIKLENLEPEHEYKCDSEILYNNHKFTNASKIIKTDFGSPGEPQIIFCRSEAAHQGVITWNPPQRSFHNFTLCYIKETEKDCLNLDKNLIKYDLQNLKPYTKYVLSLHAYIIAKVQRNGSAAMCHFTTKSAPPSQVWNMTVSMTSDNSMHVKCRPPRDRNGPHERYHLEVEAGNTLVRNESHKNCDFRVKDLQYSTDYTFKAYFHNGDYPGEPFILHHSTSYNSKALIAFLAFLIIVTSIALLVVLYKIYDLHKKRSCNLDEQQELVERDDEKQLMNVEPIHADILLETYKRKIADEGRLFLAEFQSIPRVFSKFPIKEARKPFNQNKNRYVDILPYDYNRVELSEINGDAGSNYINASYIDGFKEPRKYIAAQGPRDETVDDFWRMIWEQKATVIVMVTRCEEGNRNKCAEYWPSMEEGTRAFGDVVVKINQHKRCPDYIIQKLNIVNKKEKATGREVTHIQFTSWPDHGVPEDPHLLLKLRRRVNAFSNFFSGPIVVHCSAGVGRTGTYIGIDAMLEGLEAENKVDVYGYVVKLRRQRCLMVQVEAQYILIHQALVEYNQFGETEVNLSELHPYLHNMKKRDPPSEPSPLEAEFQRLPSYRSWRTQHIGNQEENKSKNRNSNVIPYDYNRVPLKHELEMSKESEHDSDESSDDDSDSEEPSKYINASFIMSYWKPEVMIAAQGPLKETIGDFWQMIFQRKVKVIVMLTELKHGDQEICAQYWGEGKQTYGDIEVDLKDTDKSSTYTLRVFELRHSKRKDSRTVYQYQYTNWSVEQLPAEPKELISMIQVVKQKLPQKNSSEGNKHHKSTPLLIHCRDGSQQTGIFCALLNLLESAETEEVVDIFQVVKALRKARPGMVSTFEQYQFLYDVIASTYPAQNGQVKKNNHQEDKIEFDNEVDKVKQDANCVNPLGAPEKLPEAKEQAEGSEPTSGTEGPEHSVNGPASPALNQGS

[3] = molecular target: Beta-2 adrenergic receptor (Homo sapiens, UniProt P07550); assay: DRUGMATRIX: Adrenergic beta2 radioligand binding (ligand: [3H] CGP-12177); type: cell membranes, CHO, Membrane; details: cho; Not Active = under 50% inhibition at 10 µM
Histamine H2 receptor = Histamine H2 receptor (Homo sapiens, UniProt P25021); type: cell membranes, CHO-K1, Membrane; details: cho-k1; note: in other assays of this panel Not Active means under 50% inhibition at 10 µM
Chain of Histamine H2 receptor (P25021 whole entry): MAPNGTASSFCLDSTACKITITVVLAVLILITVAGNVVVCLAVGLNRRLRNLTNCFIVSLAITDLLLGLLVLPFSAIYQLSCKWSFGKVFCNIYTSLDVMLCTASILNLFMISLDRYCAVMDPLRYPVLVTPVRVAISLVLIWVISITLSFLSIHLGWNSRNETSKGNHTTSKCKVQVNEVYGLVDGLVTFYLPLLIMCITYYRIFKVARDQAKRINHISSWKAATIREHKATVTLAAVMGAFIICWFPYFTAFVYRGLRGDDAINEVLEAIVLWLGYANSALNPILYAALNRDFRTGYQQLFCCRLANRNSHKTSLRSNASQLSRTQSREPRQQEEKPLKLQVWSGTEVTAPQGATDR

Chain of Beta-2 adrenergic receptor (P07550 whole entry): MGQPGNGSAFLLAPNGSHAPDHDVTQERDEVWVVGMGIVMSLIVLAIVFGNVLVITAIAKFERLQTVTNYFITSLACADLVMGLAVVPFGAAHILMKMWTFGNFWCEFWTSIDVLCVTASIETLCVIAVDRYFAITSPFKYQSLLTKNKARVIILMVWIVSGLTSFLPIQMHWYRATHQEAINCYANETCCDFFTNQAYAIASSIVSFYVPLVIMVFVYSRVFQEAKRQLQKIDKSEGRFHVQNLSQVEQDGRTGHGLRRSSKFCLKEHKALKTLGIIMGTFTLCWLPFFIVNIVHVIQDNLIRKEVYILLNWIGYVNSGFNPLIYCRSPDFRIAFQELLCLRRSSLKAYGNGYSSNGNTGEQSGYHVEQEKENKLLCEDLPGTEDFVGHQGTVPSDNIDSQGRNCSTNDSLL

Compound	IC50 [1]	IC50 [2]	IC50 [3]	IC50 (Histamine H2 receptor)	IC50 ([1]; read-out: IC50) [nM]	Ki ([1]; read-out: Ki) [nM]
CCOC(=O)C1=C(C)NC(C)=C(C(=O)OC)C1c1cccc(Cl)c1Cl (stereo not given) [FELODIPINE]	Not Active	Not Active	Not Active	Not Active	–	–
CC(C)C[C@H]1C(=O)N2CCC[C@H]2[C@]2(O)O[C@](NC(=O)[C@@H]3C=C4c5cccc6[nH]c(Br)c(c56)C[C@H]4N(C)C3)(C(C)C)C(=O)N12 [BROMOCRIPTINE]	–	Not Active	Not Active	Not Active	6.96	2.82
CCOC(=O)[C@H](CCc1ccccc1)N[C@@H](C)C(=O)N1CCC[C@H]1C(=O)O	Not Active	Not Active	Not Active	Not Active	–	–
C[C@@H]1CC[C@H]2[C@@H](C)C(=O)O[C@@H]3O[C@@]4(C)CC[C@@H]1[C@]32OO4 [ARTEMISININ]	Not Active	Not Active	Not Active	Not Active	–	–
CN1C(=O)CN=C(c2ccccc2)c2cc(Cl)ccc21 [DIAZEPAM]	Not Active	Not Active	Not Active	Not Active	–	–
Nn1nnc2ccccc21	Not Active	Not Active	Not Active	Not Active	–	–
CC(C)(CO)C(O)C(=O)NCCCO (stereo not given) [PANTHENOL]	Not Active	Not Active	Not Active	Not Active	–	–
O=C(O)Cc1ccc(-c2ccccc2)cc1 [FELBINAC]	Not Active	Not Active	Not Active	Not Active	–	–
O=C(O)c1cccnc1 [NIACIN]	Not Active	Not Active	Not Active	Not Active	–	–
C[C@H](C(=O)O)c1cccc(C(=O)c2ccccc2)c1 [DEXKETOPROFEN]	Not Active	Not Active	Not Active	Not Active	–	–
CC[C@H]1OC(=O)[C@H](C)[C@@H](O[C@H]2C[C@@](C)(OC)[C@@H](O)[C@H](C)O2)[C@H](C)[C@@H](O[C@@H]2O[C@H](C)C[C@H](N(C)C)[C@H]2O)[C@](C)(OC)C[C@@H](C)C(=O)[C@H](C)[C@@H](O)[C@]1(C)O [CLARITHROMYCIN]	Not Active	Not Active	Not Active	Not Active	–	–
